Experiments:
[1] = target: PD-L1 His protein / PD-1 Fc protein (Homo sapiens (Human), UniProt Q9NZQ7); experiment: HTRF Assay (PD-1/PD-L1 interaction); format: binding; conditions: PD-L1 His 6 nM, PD-1 Fc 6 nM
human PD-L1 = human PD-L1 (Homo sapiens (Human), UniProt Q9NZQ7); experiment: T cell activation luciferase reporter cell culture system (T Cell Activation Assay); format: cell-based; conditions: luciferase reporter assay; PD-L1 aAPC/CHO-K1 cells with PD-1 effector Jurkat T cells
HBV-specific T cells = experiment: HBV-specific T cell reinvigoration in vitro assay using PBMCs from chronic hepatitis B patients; format: cell-based, human; conditions: relative to HBV-specific peptide treatment alone, 24 hours
Method: In one aspect, this assay measures the ability of a PD-L1 inhibitor to increase HBV specific T cell activity in an infected subject, as measured by the increase in interferon-gamma expression by those T cells.
The ability of PD-L1 inhibitor compounds to reinvigorate HBV-specific T cell activity was assessed as described. PBMCs from nine chronic hepatitis B patients were obtained by Ficoll separation of fresh whole blood and frozen in liquid nitrogen as described previously (Park et al., Nature Communications, 2021; 12:1222). Frozen PBMCs were thawed and plated into 12-well plates at 2×10^6 cells/ml. PBMCs were rested overnight at 37° C. before they were stimulated with HBV-specific peptide pools and allowed to proliferate for 5 days. Expanded PBMCs were then restimulated with HBV-specific peptide pools alone or stimulated with HBV-specific peptide pools and incubated with compounds 89, 90, and 139, a negative control, or anti-PD-L1 antibody as reference. Supernatant was obtained after 24 hours and assayed for IFN-γ using the Luminex platform. Fold change increase in IFN-γ expression mediated by compound treatment relative to HBV-specific peptide treatment alone was determined (Table 3).

[2] = system: MC38 tumors expressing human PD-L1; experiment: In vivo anti-tumor efficacy in humanized PD-L1 and PD-1 expressing MC38 tumor mouse model; conditions: intraperitoneal 0.3 mg/kg thrice weekly, study days 1 to 15
Method: In one aspect, this assay measures the ability of a PD-L1 inhibitor to reduce the size of MC38 (a murine colon adenocarcinoma cell line) tumors in mice, as an indication of the PD-L1 inhibitor's ability to help treat, ameliorate, and/or prevent cancer in the subject.
In vivo anti-tumor efficacy of compounds was evaluated in mice expressing humanized PD-1 and PD-L1, in which the extracellular domains of murine PD-1 and PD-L1 were genetically replaced with the human extracellular domain counterparts (Huang et al., Scientific Reports, 2017; 7:42687). Humanized PD-1/PD-L1 (hPD-1/hPD-L1) mice were subcutaneously implanted with the colorectal cancer cell line MC38 expressing human PD-L1 and compound treatment initiated when tumor volumes reached approximately 100 mm^3. Compounds were administered via oral gavage once daily at: 30 mg/kg between study days 1 and 7; or 10 mg/kg for 28 days. The anti-PD-L1 monoclonal antibody atezolizumab was included as a positive reference control and administered via intraperitoneal injection at 0.3 mg/kg thrice weekly between study days 1 and 15. Tumor lengths and widths were measured by digital caliper and tumor volumes were calculated by the formula: […].

Sequence of PD-L1 His protein / PD-1 Fc protein (Q9NZQ7 19-238): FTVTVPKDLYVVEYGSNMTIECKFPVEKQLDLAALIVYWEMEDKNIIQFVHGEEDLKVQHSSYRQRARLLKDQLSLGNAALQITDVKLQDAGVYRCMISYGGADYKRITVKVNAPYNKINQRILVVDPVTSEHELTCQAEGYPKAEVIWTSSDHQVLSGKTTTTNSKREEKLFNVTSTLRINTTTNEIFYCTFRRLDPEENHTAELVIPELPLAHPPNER
Sequence of human PD-L1 (Q9NZQ7 19-290): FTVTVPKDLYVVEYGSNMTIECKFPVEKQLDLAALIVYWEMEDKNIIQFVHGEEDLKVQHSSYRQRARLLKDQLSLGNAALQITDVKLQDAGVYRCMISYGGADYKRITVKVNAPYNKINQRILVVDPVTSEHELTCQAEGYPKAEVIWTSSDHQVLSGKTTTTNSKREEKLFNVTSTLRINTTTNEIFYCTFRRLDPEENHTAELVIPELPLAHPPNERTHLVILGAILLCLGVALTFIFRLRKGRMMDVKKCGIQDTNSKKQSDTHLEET

Molecule	IC50 [1] [nM]	EC50 (human PD-L1) [nM]	other results
COc1cc(-c2nccc(-c3cccc(-c4ccc(CN5CC6(C5)CN(C(C)=O)C6)c(OC)n4)c3Cl)c2Cl)ccc1CN1CC2(C1)CN(C(C)=O)C2 [Compound 90, 1-(6-((6-(3-(2-(4-((6-acetyl-2,6-diazaspiro[3.3]heptan-2-yl)methyl)-3-methoxyphenyl)-3-chloropyridin-4-yl)-2-chlorophenyl)-2-methoxypyridin-3-yl)methyl)-2,6-diazaspiro[3.3]heptan-2-yl)ethan-1-one]	0.7	58.3	Fold Change in IFN-γ Expression of HBV-specific T Cells (HBV-specific T cells; Chronic Hepatitis B Donor 1): 1.7 Fold Change; Fold Change in IFN-γ Expression of HBV-specific T Cells (HBV-specific T cells; Chronic Hepatitis B Donor 2): 2.2 Fold Change; Fold Change in IFN-γ Expression of HBV-specific T Cells (HBV-specific T cells; Chronic Hepatitis B Donor 3): 1.9 Fold Change; Fold Change in IFN-γ Expression of HBV-specific T Cells (HBV-specific T cells; Chronic Hepatitis B Donor 4): 3.0 Fold Change; Fold Change in IFN-γ Expression of HBV-specific T Cells (HBV-specific T cells; Chronic Hepatitis B Donor 5): 1.2 Fold Change; Fold Change in IFN-γ Expression of HBV-specific T Cells (HBV-specific T cells; Chronic Hepatitis B Donor 6): 2.5 Fold Change; Fold Change in IFN-γ Expression of HBV-specific T Cells (HBV-specific T cells; Chronic Hepatitis B Donor 7): 1.5 Fold Change; Fold Change in IFN-γ Expression of HBV-specific T Cells (HBV-specific T cells; Chronic Hepatitis B Donor 8): 2.1 Fold Change; Fold Change in IFN-γ Expression of HBV-specific T Cells (HBV-specific T cells; Chronic Hepatitis B Donor 9): 1.2 Fold Change; Fold Change in IFN-γ Expression of HBV-specific T Cells, Mean ± SD (HBV-specific T cells; Mean ± SD of nine chronic hepatitis B donors): 1.9 ± 0.6 Fold Change
COc1nc(-c2cccc(-c3nccc(-c4ccc(CN5CCC(O)CC5)c(OC)n4)c3Cl)c2Cl)ccc1CNC1CCN(C(C)=O)CC1 [Example 761, 1-(4-(((6-(2-Chloro-3-(3′-chloro-5-((4-hydroxypiperidin-1-yl)methyl)-6-methoxy-[2,4′-bipyridin]-2′-yl)phenyl)-2-methoxypyridin-3-yl)methyl)amino)piperidin-1-yl)ethan-1-one]	0.87	16.9	–
COc1cc(-c2nccc(-c3cccc(NC(=O)c4ccc(CNCCO)cn4)c3C)c2Cl)cc(F)c1CNCCO [Example 762, N-(3-(3-chloro-2-(3-fluoro-4-(((2-hydroxyethyl)amino)methyl)-5-methoxyphenyl)pyridin-4-yl)-2-methylphenyl)-5-(((2-hydroxyethyl)amino)methyl)picolinamide]	0.75	49.9	–
COc1nc(-c2ccnc(-c3cccc(NC(=O)c4ccc(CNCCO)cn4)c3C)c2Cl)ccc1CNC1CCOCC1 [Example 766, N-(3-(3′-Chloro-6-methoxy-5-(((tetrahydro-2H-pyran-4-yl)amino)methyl)-[2,4′-bipyridin]-2′-yl)-2-methylphenyl)-5-(((2-hydroxyethyl)amino)methyl)picolinamide]	0.32	152	–
COc1cc(-c2nccc(-c3cccc(NC(=O)c4ccc(CNCCO)cn4)c3Cl)c2Cl)ccc1CNC1CCOCC1 [Example 768, N-(2-Chloro-3-(3-chloro-2-(3-methoxy-4-(((tetrahydro-2H-pyran-4-yl)amino)methyl)phenyl)pyridin-4-yl)phenyl)-5-(((2-hydroxyethyl)amino)methyl)picolinamide]	0.1	16.7	–
COc1nc(-c2ccnc(-c3cccc(NC(=O)c4ccc(CNCCO)cn4)c3C)c2Cl)ccc1CNC1CCN(C(C)=O)CC1 [Example 769, N-(3-(5-(((1-Acetylpiperidin-4-yl)amino)methyl)-3′-chloro-6-methoxy-[2,4′-bipyridin]-2′-yl)-2-methylphenyl)-5-(((2-hydroxyethyl)amino)methyl)picolinamide]	0.24	60.6	–
Cc1c(NC(=O)c2ccc(CNCCO)cn2)cccc1-c1ccnc(-c2ccc(CNC[C@@H]3CCC(=O)N3)c(OC(F)F)c2)c1Cl [Example 770, (S)—N-(3-(3-Chloro-2-(3-(difluoromethoxy)-4-((((5-oxopyrrolidin-2-yl)methyl)amino)methyl)phenyl)pyridin-4-yl)-2-methylphenyl)-5-(((2-hydroxyethyl)amino)methyl)picolinamide]	0.76	24.3	–
COc1nc(-c2ccnc(-c3cccc(NC(=O)c4ccc(CNCCO)cn4)c3C)c2Cl)ccc1CNC[C@@H]1CCC(=O)N1 [Example 771, (S)—N-(3-(3′-chloro-6-methoxy-5-((((5-oxopyrrolidin-2-yl)methyl)amino)methyl)-[2,4′-bipyridin]-2′-yl)-2-methylphenyl)-5-(((2-hydroxyethyl)amino)methyl)picolinamide]	0.03	28.7	–
COc1nc(-c2cccc(-c3nccc(-c4ccc(CN5CC[C@@H](O)C5)c(OC)n4)c3Cl)c2Cl)ccc1CN1CC[C@@H](O)C1 [Example 772, (R)-1-((3′-Chloro-2′-(2-chloro-3-(5-(((R)-3-hydroxypyrrolidin-1-yl)methyl)-6-methoxypyridin-2-yl)phenyl)-6-methoxy-[2,4′-bipyridin]-5-yl)methyl)pyrrolidin-3-ol]	0.85	11.6	–
COc1nc(-c2cccc(-c3nccc(-c4ccc(CN5CC[C@H](O)C5)c(OC)n4)c3Cl)c2Cl)ccc1CN1CC[C@H](O)C1 [Example 773, (S)-1-((3′-Chloro-2′-(2-chloro-3-(5-(((S)-3-hydroxypyrrolidin-1-yl)methyl)-6-methoxypyridin-2-yl)phenyl)-6-methoxy-[2,4′-bipyridin]-5-yl)methyl)pyrrolidin-3-ol]	1.03	10.6	–
COc1nc(-c2cccc(-c3nccc(-c4ccc(CNC5CCN(C(C)=O)CC5)c(OC)n4)c3Cl)c2Cl)ccc1CN1CCC(O)CC1 [Example 774, 1-(4-(((3′-Chloro-2′-(2-chloro-3-(5-((4-hydroxypiperidin-1-yl)methyl)-6-methoxypyridin-2-yl)phenyl)-6-methoxy-[2,4′-bipyridin]-5-yl)methyl)amino)piperidin-1-yl)ethan-1-one]	1.46	13	–
atezolizumab	–	–	Tumor Volume (group mean) ([2]; study day 2): 122 mm^3; Tumor Volume (group mean) ([2]; study day 5): 162 mm^3; Tumor Volume (group mean) ([2]; study day 9): 156 mm^3; Tumor Volume (group mean) ([2]; study day 12): 192 mm^3; Tumor Volume (group mean) ([2]; study day 16): 242 mm^3; Tumor Volume (group mean) ([2]; study day 19): 243 mm^3; Tumor Volume (group mean) ([2]; study day 23): 341 mm^3; Tumor Volume (group mean) ([2]; study day 26): 429 mm^3; Tumor Volume (group mean) ([2]; study day 28): 472 mm^3; Tumor Volume (group mean) ([2]; study day −1): 105 mm^3

From patent publication US20240246964A1 (Arbutus Biopharma Corporation, priority 2021, published 2024)
